Drawing on US20260083704A1, “LXR MODULATORS WITH BICYCLIC CORE MOIETY FOR TREATING DYSLIPIDEMIAS” (OrsoBio, Inc., priority 2022, published 2026), this text covers EC50 for 26 molecules.

Assay [1] has as its target T1, GST-LXRβ ligand-binding domain (Homo sapiens, UniProt P55055).
T1 construct: amino acids 156-461; NP009052; made in house; host or cells: E. coli
T1 sequence (P55055 156-460 limits assumed): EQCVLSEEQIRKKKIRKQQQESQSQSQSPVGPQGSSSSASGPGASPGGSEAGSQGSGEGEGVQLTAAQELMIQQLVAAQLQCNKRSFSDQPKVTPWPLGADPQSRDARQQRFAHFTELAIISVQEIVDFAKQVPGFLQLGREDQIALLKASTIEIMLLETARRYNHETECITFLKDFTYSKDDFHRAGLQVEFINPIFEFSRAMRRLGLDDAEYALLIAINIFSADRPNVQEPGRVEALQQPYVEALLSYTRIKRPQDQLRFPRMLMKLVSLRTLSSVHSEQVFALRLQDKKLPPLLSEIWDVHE
The assay is described as follows: TR-FRETβ activity assay (NCoA3 coactivator peptide recruitment). The assay is classed as biochemical. As to conditions: 1 μM 24(S)-25-epoxycholesterol prestimulation. The protocol:
Recombinant GST-LXRβ ligand-binding domain (LBD; amino acids 156-461; NP009052; SEQ ID NO:4) was expressed in E. coli and purified via gluthatione-sepharose affinity chromatography. N-terminally biotinylated NCoA3 coactivator peptide (SEQ ID NO:7) was chemically synthesized (Eurogentec). Assays were done in 384 well format (final assay volume of 25 μL/well) in a Tris/HCl buffer (pH 6.8) containing KCl, bovine serum albumin, Triton-X-100 and 1 μM 24(S)-25-epoxycholesterol as LXR-prestimulating agonist. Assay buffer was provided and test articles (potential LXR inverse agonists) were titrated to yield final assay concentrations of 50 μM, 16.7 μM, 5.6 μM, 1.9 μM, 0.6 μM, 0.2 μM, 0.07 μM, 0.02 μM, 0.007 μM, 0.002 μM with one vehicle control. Finally, a detection mix was added containing anti GST-Tb cryptate (CisBio; 610SAXLB) and Streptavidin-XL665 (CisBio; 610SAXLB) as fluorescent donor and acceptor, respectively, as well as the coactivator peptide and LXRβ-LBD protein (SEQ ID NO:4). The reaction was mixed thoroughly, equilibrated for 1 h at 4° C. and vicinity of LXRβ and coactivator peptide was detected by measurement of fluorescence in a VictorX4 multiplate reader (PerkinElmer Life Science) using 340 nm as excitation and 615 and 665 nm as emission wavelengths. Assays were performed in triplicates.
240 mM KCl, 1 μg/μL BSA, 0.002% Triton-X-100, […] anti GST-Tb cryptate, 2.5 ng/μL Streptavidin-XL665, coactivator peptide (400 nM), LXRβ protein (530 μg/mL, i.e. 76 nM).

Another assay has as its target T2, LXRβ (Homo sapiens, UniProt P55055).
T2 sequence (P55055 1-460): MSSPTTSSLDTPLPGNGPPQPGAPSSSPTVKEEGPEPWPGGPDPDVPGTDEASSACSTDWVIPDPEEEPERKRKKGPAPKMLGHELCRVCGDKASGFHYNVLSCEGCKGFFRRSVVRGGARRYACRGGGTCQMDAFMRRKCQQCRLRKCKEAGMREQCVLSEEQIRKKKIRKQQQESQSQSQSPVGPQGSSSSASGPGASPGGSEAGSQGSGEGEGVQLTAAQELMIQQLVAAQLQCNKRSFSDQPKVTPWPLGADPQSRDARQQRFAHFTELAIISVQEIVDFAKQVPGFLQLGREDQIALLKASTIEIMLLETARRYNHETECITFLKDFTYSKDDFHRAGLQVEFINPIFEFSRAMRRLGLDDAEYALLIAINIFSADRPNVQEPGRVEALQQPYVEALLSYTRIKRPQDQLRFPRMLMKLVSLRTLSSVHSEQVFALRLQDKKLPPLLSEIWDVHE
Nature of the assay: LXR Gal4 reporter transient transfection assay (mammalian two-hybrid, HEK293), LXRβ. Type of assay: cell-based. Further details: LXRβ (amino acids 156-461); expressed in transfected cells; host or cells: HEK293. The conditions noted are these: full length (FL) LXRβ, HEK293; read-out: FL-M2H Gal4β. How it is done: LXRα and LXRβ activity status was determined via detection of interaction with coactivator and corepressor proteins in mammalian two-hybrid experiments (M2H). For this, via transient transfection the full length (FL) proteins of LXRα (amino acids 1-447; NP005684; SEQ ID NO:1) or LXRβ-(amino acids 1-461; NP009052; SEQ ID NO:2) or the ligand-binding domains (LBD) of LXRα (amino acids 155-447 SEQ ID NO:3) or LXRβ (amino acids 156-461; SEQ ID NO:4) were expressed from pCMV-AD (Stratagene) as fusions to the transcriptional activation domain of NFkB. As cofactors, domains of either the steroid receptor coactivator 1 (SRC1; amino acids 552-887; SEQ ID NO:5) or of the corepressor NCoR (amino acids 1906-2312; NP006302; SEQ ID NO:6) were expressed as fusions to the DNA binding domain of the yeast transcription factor GAL4 (from pCMV-BD; Stratagene). Interaction was monitored via activation of a coexpressed Firefly Luciferase Reporter gene under control of a promoter containing repetitive GAL4 response elements (vector pFRLuc; Stratagene). Transfection efficiency was controlled via cotransfection of constitutively active pRL-CMV Renilla reniformis luciferase reporter (Promega). HEK293 cells were grown in minimum essential medium (MEM) with 2 mM L-glutamine and Earle's balanced salt solution supplemented with 8.3% fetal bovine serum, 0.1 mM non-essential amino acids, 1 mM sodium pyruvate, at 37° C. in 5% CO2. 3.5×10^4 cells/well were plated in 96-well cell culture plates in growth medium supplemented with 8.3% fetal bovine serum for 16-20 h to ˜90% confluency. For transfection, medium was taken off and LXR and cofactor expressing plasmids as well as the reporter plasmids are added in 30 μL OPTIMEM/well including polyethylene-imine (PEI) as vehicle. Typical amounts of plasmids transfected/well: pCMV-AD-LXR (5 ng), pCMV-BD-cofactor (5 ng), pFR-Luc (100 ng), pRL-CMV (0.5 ng). Compound stocks were prepared in DMSO, prediluted in MEM to a total volume of 120 μL, and added 4 h after addition of the transfection mixture (final vehicle concentration not exceeding 0.2%). Cells were incubated for additional 16 h, lysed for 10 min in 1×Passive Lysis Buffer (Promega) and Firefly and Renilla luciferase activities were measured sequentially in the same cell extract using buffers containing D-luciferine and coelenterazine, respectively. Measurements of luminescence were done in a BMG-luminometer.
The potencies of Compound 21/3 and its analog, Compound pre-6/3, against LXRα and LXRβ were evaluated in biochemical binding assays, cellular mammalian two-hybrid (M2H) interaction assays evaluating nuclear receptor co-repressor (NCOR) recruitment, and cellular reporter assays evaluating transcriptional activity (Table 5).

pEC50: −log10 of the molar value.

In the case of `COC(=O)c1ccc(-c2cccc(-c3c(-c4c(C)cccc4C#N)c4cc(F)ccc4n3S(=O)(=O)c3ccc(C(F)F)cc3)c2)c(Cl)c1` [1/122], the pEC50 in assay [1] was 6.00 to 7.00; at LXRβ it was > 7.00.
The corresponding values for `Cc1ccc(S(=O)(=O)n2c(-c3cccc(-c4ccc(C(=O)O)c(F)c4Cl)c3)c(-c3ccsc3C#N)c3cc(F)ccc32)cc1` [12/3] are 6.00 to 7.00 and > 7.00.
With `N#Cc1sccc1-c1c(-c2cccc(-c3ccc(C(=O)O)cc3Cl)c2)n(S(=O)(=O)c2ccc(C(F)F)nc2)c2ccc(F)cc12` [11/57], the pEC50 (in assay [1]; on LXRβ) was > 7.00 throughout.
Take `N#Cc1sccc1-c1c(-c2cccc(N3CC(C(=O)O)C3)c2)n(S(=O)(=O)c2ccc(Cl)cc2)c2ccc(F)cc12` [5/7]: the figures for the pEC50 (in assay [1]; at LXRβ) were 6.00 to 7.00 and > 7.00, respectively.
On the same counts, the results for `N#Cc1sccc1-c1c(-c2cccc(N3CC(C(=O)O)C3)c2)n(S(=O)(=O)c2ccc3ccccc3c2)c2ccc(F)cc12` [3/13] are 5.00 to 6.00 and > 7.00.
For the molecule `Cc1ccc(S(=O)(=O)n2c(-c3cccc(-c4ccc(C(C(=O)O)N(C)C)cc4Cl)c3)c(-c3ccsc3C#N)c3cc(F)ccc32)cc1` (stereo not shown) [Compound 3], the pEC50 (in assay [1]; at LXRβ) was > 7.00 throughout.
`Cc1ccc(S(=O)(=O)n2c(-c3cccc(-c4ccc(CO)c(S(=O)(=O)CC(=O)O)c4)c3)c(-c3ccsc3C#N)c3ccccc32)cc1` [5/1]: the pEC50 (in assay [1]; at LXRβ) was 6.00 to 7.00 each time.
On to `COc1cc(C(=O)O)ccc1-c1cccc(-c2c(-c3ccccc3C#N)c3cc(F)ccc3n2S(=O)(=O)c2ccc(C(F)F)cc2)c1` [11/29], for which the pEC50 (in assay [1]; at LXRβ) was > 7.00 throughout.
For the molecule `Cc1ccc(S(=O)(=O)n2c(-c3cccc(-c4ccc(C(=O)O)nc4C)c3)c(-c3ccsc3C#N)c3cc(F)ccc32)cc1` [36/1], the pEC50 in assay [1] was 6.00 to 7.00; on LXRβ it was > 7.00.
On to `N#Cc1cccc(C#N)c1-c1c(-c2cccc(Br)c2)n(S(=O)(=O)c2ccc(C(F)F)cc2)c2ccc(F)cc12` [1/139], for which the figures for the pEC50 (in assay [1]; on LXRβ) were 6.00 to 7.00 and > 7.00, respectively.
Consider `O=C(O)c1ccc(-c2cccc(-c3c(-c4cccc5c4OCO5)c4cc(F)ccc4n3S(=O)(=O)c3ccc(C(F)F)cc3)c2)c(Cl)c1` [11/44], for which the pEC50 (in assay [1]; on LXRβ) was > 7.00 throughout.
Turning to `Cc1ccc(S(=O)(=O)n2c(-c3cccc(C4(C)CC4C(=O)O)c3)c(-c3ccsc3C#N)c3cc(F)ccc32)cc1` (stereo not shown) [3/2], the figures for the pEC50 (in assay [1]; at LXRβ) were 5.00 to 6.00 and > 7.00, respectively.
For `O=C(O)c1ccc(-c2cccc(-c3c(-c4ccccc4)c4cc(F)ccc4n3S(=O)(=O)c3ccc(C(F)F)cc3)c2)c(Cl)c1` [C11/39], the results for the pEC50 (in assay [1]; on LXRβ) were 6.00 to 7.00 and > 7.00, respectively.
Consider `Cc1ccc(S(=O)(=O)n2c(-c3cccc(-c4ccc(C(C)(C)C(=O)O)c(S(C)(=O)=O)c4)c3)c(-c3ccsc3C#N)c3cc(F)ccc32)cc1` [2/18], for which the pEC50 in assay [1] was 6.00 to 7.00; on LXRβ, > 7.00.
Take `N#Cc1cccc(C#N)c1-c1c(-c2cccc(-c3ccc(S(=O)(=O)O)cc3Cl)c2)n(S(=O)(=O)c2ccc(C(F)F)cc2)c2ccc(F)cc12` [12/10]: the pEC50 (in assay [1]; on LXRβ) was > 7.00 each time.
Take `CC(C)(O)c1ccc(S(=O)(=O)n2c(-c3cccc(-c4ccc(C(=O)O)cc4Cl)c3)c(-c3ccccc3C#N)c3cc(F)ccc32)cc1` [30/16]: the pEC50 in assay [1] was 5.00 to 6.00; on LXRβ it was 6.00 to 7.00.
For the molecule `Cc1ccc(S(=O)(=O)n2c(-c3cccc(-c4ccc5c(C(=O)O)n[nH]c5c4)c3)c(-c3ccsc3C#N)c3cc(F)ccc32)cc1` [12/9], the pEC50 (in assay [1]; on LXRβ) was 6.00 to 7.00 each time.
In the case of `Cc1ccc(S(=O)(=O)n2c(-c3cccc(-c4ccc(CN)cc4Cl)c3)c(-c3ccsc3C#N)c3cc(F)ccc32)cc1` [2/1], the pEC50 (in assay [1]; on LXRβ) was 6.00 to 7.00 in each case.
As for `O=C(O)c1ccc(-c2cccc(-c3c(-c4cccc5oncc45)c4cc(F)ccc4n3S(=O)(=O)c3ccc(C(F)F)cc3)c2)c(Cl)c1` [3/69], the pEC50 (in assay [1]; on LXRβ) was 6.00 to 7.00 each time.
Consider `N#Cc1cccc(C#N)c1-c1c(-c2cccc(N3CC(C(=O)O)C3)c2)n(S(=O)(=O)c2ccc(C(F)F)cc2)c2ccc(F)cc12` [3/67], for which the pEC50 (in assay [1]; at LXRβ) was 6.00 to 7.00 in each case.
Take `Cc1ccc(S(=O)(=O)n2c(-c3cccc(-c4ccc(C(=O)O)cc4Cl)c3)c(-c3cccc(C)c3C#N)c3cc(F)ccc32)cc1` [11/2]: the pEC50 (in assay [1]; at LXRβ) was > 7.00 throughout.
Take `Cc1ccc(S(=O)(=O)n2c(-c3cccc(-c4cc(C(=O)O)n[nH]4)c3)c(-c3ccsc3C#N)c3cc(F)ccc32)cc1` [12/6]: the pEC50 (in assay [1]; at LXRβ) was 5.00 to 6.00 in each case.
As for `COc1cccc(-c2c(-c3cccc(-c4ccc(C(=O)O)cc4Cl)c3)n(S(=O)(=O)c3ccc(C)cc3)c3ccc(F)cc23)c1C#N` [11/3], the pEC50 (in assay [1]; at LXRβ) was > 7.00 throughout.
As to `Cc1ccc(S(=O)(=O)n2c(-c3cccc(-c4ccc(C(=O)O)cc4Cl)c3)c(-c3cc(C)ccc3C#N)c3cc(F)ccc32)cc1` [11/5], the pEC50 (in assay [1]; at LXRβ) was > 7.00 throughout.
As to `Cc1ccc(S(=O)(=O)n2c(-c3cccc(C4CC4C(=O)O)c3)c(-c3ccsc3C#N)c3ncccc32)cc1` (stereo not shown) [Compound 4], the pEC50 is 5.00 to 6.00 in assay [1] and 6.00 to 7.00 at LXRβ.
Turning to `Cc1ccc(S(=O)(=O)n2c(-c3cccc(C#CC(C)(C)C(=O)O)c3)c(-c3ccsc3C#N)c3cc(F)ccc32)cc1` [5/4], the results for the pEC50 (in assay [1]; on LXRβ) were 5.00 to 6.00 and > 7.00, respectively.
